Literature values as cited in article PMC9851200, “Multiparameter phenotypic screening for endogenous TFEB and TFE3 translocation identifies novel chemical series modulating lysosome function” (Autophagy, 2022).

Columns and labels:
Parameters in all cases: method as in original PKIS2 published data
[1] = biological target: kinases (KINOMEscan panel) (Homo sapiens, UniProt P09619); conditions: Published KINOMEscan; ref original PKIS2 published data; cited from earlier work
[2] = biological target: kinases (KINOMEscan panel) (Homo sapiens, UniProt P42338); conditions: PIK3CB; Published KINOMEscan; ref original PKIS2 published data; cited from earlier work
Chain of kinases (KINOMEscan panel) (Homo sapiens, UniProt P42338) (P42338 whole entry): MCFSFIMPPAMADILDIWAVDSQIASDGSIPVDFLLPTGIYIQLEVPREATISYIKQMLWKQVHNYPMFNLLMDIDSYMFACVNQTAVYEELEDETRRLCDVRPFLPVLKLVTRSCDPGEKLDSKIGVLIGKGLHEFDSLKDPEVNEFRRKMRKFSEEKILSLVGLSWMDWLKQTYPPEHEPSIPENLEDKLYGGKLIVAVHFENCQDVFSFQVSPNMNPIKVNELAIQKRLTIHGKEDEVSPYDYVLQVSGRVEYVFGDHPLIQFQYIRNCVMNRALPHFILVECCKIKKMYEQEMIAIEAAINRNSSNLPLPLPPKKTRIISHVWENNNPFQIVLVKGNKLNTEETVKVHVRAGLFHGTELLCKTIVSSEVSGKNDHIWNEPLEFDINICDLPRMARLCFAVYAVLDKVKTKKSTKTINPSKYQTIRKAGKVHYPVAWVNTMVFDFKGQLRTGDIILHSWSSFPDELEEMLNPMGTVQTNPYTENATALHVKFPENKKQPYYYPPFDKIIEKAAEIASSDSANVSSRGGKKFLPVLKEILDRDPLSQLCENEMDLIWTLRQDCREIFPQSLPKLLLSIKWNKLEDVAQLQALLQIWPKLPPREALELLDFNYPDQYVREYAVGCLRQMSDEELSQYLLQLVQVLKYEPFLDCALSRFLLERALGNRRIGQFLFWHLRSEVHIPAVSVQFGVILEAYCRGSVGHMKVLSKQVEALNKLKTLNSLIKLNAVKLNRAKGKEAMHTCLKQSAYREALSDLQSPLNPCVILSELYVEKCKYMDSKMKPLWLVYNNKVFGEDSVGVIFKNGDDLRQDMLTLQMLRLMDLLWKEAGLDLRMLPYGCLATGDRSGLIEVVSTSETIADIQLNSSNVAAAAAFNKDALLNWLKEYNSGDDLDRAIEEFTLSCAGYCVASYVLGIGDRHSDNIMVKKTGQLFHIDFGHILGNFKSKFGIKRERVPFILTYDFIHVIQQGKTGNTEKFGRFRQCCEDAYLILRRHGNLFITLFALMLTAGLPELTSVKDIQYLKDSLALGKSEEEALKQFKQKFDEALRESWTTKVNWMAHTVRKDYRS

[3] = biological target: kinases (KINOMEscan panel) (Homo sapiens, UniProt Q9UPE1); conditions: SRPK3; Published KINOMEscan; ref original PKIS2 published data; cited from earlier work
[4] = biological target: kinases (KINOMEscan panel) (Homo sapiens, UniProt Q9BX84); conditions: TRPM6; Published KINOMEscan; ref original PKIS2 published data; cited from earlier work
[5] = biological target: kinases (KINOMEscan panel) (Homo sapiens, UniProt P49761); conditions: CLK3; Published KINOMEscan; ref original PKIS2 published data; cited from earlier work
Chain of kinases (KINOMEscan panel) (Homo sapiens, UniProt P49761) (P49761 whole entry): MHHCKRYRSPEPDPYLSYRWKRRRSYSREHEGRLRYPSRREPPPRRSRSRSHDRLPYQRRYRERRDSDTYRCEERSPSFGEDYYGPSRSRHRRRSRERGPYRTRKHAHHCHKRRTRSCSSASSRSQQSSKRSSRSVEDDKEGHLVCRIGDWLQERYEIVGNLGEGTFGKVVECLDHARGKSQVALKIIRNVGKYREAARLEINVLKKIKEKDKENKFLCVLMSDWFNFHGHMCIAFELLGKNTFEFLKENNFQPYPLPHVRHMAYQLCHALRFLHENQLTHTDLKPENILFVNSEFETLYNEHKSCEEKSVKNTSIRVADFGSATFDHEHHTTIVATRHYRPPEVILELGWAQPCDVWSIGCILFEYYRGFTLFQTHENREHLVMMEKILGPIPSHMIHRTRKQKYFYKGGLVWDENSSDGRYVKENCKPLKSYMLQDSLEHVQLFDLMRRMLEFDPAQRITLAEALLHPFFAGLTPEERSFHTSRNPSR

[6] = biological target: kinases (KINOMEscan panel) (Homo sapiens, UniProt P07333); conditions: Published KINOMEscan; ref original PKIS2 published data; cited from earlier work
Chain of kinases (KINOMEscan panel) (Homo sapiens, UniProt P07333) (P07333 20-972): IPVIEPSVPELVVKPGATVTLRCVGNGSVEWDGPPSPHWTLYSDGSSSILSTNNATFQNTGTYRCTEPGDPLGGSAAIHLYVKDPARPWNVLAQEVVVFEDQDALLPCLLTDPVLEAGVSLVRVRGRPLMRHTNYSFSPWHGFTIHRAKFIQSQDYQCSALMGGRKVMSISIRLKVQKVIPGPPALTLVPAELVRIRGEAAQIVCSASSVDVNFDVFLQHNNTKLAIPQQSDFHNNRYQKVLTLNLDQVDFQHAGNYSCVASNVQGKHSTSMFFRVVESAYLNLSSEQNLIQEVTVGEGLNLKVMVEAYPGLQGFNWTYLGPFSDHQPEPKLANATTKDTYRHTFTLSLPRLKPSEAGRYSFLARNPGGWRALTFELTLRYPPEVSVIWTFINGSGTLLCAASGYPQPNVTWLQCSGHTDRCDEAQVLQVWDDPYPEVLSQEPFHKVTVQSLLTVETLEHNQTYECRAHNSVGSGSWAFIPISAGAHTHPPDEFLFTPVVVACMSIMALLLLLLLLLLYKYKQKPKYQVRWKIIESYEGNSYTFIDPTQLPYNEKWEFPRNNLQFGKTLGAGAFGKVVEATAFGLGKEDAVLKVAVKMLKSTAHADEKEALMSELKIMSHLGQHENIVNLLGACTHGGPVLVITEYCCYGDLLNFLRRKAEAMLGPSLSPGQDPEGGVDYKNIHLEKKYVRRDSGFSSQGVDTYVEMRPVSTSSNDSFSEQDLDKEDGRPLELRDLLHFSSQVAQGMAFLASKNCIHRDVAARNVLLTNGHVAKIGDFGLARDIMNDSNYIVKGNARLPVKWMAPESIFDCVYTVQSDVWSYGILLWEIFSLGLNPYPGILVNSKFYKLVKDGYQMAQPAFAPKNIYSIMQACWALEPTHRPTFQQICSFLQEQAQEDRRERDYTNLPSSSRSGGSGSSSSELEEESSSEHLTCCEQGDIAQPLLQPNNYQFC

[7] = biological target: kinases (KINOMEscan panel) (Homo sapiens, UniProt Q9H1R3); conditions: MYLK2; Published KINOMEscan; ref original PKIS2 published data; cited from earlier work
Chain of kinases (KINOMEscan panel) (Homo sapiens, UniProt Q9H1R3) (Q9H1R3 whole entry): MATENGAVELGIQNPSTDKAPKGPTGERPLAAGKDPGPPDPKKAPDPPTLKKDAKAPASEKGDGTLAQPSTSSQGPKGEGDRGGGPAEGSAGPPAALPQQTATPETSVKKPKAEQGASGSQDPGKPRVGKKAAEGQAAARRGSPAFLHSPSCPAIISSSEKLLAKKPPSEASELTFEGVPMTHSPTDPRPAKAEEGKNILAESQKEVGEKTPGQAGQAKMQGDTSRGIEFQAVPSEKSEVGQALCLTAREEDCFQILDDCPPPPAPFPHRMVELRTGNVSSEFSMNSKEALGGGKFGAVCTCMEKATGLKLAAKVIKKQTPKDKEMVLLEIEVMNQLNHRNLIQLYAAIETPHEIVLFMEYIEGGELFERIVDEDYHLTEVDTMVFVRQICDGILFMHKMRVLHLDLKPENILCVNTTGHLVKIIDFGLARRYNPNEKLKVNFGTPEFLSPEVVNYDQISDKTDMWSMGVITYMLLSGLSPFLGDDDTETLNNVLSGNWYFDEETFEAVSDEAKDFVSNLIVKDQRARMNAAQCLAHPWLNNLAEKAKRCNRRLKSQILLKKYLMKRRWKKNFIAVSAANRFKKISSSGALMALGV

[8] = biological target: T1, kinases (KINOMEscan panel) (Homo sapiens, UniProt Q9Y616); conditions: IRAK3; Published KINOMEscan; ref original PKIS2 published data; cited from earlier work
T1 sequence (Q9Y616 1-596): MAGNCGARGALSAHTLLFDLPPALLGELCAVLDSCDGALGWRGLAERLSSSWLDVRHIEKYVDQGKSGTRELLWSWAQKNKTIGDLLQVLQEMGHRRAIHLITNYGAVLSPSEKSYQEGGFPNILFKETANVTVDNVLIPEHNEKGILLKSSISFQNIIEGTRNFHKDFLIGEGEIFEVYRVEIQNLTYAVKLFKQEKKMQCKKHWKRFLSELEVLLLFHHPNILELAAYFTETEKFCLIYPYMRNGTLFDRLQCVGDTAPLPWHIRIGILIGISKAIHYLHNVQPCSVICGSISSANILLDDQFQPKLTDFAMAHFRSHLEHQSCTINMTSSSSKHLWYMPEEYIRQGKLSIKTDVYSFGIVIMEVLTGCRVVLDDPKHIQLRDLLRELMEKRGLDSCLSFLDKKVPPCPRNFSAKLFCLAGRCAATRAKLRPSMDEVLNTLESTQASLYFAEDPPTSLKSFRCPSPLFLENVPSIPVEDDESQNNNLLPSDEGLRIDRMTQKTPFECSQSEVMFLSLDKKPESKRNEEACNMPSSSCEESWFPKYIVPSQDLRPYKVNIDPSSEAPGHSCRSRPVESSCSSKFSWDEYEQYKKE

[9] = biological target: kinases (KINOMEscan panel) (Homo sapiens, UniProt Q9Y6M4); conditions: CSNK1G3; Published KINOMEscan; ref original PKIS2 published data; cited from earlier work
[10] = biological target: T2, kinases (KINOMEscan panel) (Homo sapiens, UniProt Q06418); conditions: Published KINOMEscan; ref original PKIS2 published data; cited from earlier work
T2 sequence (Q06418 41-890): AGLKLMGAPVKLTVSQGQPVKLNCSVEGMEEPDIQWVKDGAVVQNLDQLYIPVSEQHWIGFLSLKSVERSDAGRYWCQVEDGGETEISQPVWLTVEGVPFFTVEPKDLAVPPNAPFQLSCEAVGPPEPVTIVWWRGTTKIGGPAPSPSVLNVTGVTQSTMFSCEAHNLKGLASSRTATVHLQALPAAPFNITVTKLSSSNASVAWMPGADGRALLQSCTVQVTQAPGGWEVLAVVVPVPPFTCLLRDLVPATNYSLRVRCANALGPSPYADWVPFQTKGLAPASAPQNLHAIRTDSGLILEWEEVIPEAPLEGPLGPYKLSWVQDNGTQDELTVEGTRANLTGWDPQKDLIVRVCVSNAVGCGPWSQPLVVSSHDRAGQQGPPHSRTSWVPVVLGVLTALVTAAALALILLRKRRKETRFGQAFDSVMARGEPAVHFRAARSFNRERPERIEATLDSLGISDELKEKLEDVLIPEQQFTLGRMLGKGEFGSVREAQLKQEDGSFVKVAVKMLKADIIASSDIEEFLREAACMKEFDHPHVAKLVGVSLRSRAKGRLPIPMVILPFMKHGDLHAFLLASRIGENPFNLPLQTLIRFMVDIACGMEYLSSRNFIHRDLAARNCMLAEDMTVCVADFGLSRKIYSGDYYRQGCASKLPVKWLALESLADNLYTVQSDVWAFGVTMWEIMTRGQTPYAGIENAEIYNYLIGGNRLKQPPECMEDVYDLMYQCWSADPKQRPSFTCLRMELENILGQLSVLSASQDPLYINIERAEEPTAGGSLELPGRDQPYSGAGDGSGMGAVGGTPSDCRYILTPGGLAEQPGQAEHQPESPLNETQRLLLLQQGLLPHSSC

[11] = biological target: kinases (KINOMEscan panel) (Homo sapiens, UniProt Q9UQM7); conditions: kinase CAMK2A; Published KINOMEscan; ref original PKIS2 published data; cited from earlier work
Chain of kinases (KINOMEscan panel) (Homo sapiens, UniProt Q9UQM7) (Q9UQM7 whole entry): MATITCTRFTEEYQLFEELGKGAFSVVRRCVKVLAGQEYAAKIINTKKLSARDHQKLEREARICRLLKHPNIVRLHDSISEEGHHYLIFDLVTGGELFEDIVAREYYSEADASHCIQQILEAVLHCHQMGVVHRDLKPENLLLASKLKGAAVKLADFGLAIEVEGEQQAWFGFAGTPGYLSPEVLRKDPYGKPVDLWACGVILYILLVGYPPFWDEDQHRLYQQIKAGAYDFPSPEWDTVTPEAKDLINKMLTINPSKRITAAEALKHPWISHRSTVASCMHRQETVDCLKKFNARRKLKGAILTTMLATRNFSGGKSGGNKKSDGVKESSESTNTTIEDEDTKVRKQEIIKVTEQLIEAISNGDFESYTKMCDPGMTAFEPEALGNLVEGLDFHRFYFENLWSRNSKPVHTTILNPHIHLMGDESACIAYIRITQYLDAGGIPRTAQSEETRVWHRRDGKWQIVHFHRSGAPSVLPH

Chain of kinases (KINOMEscan panel) (Homo sapiens, UniProt P09619) (P09619 33-1106): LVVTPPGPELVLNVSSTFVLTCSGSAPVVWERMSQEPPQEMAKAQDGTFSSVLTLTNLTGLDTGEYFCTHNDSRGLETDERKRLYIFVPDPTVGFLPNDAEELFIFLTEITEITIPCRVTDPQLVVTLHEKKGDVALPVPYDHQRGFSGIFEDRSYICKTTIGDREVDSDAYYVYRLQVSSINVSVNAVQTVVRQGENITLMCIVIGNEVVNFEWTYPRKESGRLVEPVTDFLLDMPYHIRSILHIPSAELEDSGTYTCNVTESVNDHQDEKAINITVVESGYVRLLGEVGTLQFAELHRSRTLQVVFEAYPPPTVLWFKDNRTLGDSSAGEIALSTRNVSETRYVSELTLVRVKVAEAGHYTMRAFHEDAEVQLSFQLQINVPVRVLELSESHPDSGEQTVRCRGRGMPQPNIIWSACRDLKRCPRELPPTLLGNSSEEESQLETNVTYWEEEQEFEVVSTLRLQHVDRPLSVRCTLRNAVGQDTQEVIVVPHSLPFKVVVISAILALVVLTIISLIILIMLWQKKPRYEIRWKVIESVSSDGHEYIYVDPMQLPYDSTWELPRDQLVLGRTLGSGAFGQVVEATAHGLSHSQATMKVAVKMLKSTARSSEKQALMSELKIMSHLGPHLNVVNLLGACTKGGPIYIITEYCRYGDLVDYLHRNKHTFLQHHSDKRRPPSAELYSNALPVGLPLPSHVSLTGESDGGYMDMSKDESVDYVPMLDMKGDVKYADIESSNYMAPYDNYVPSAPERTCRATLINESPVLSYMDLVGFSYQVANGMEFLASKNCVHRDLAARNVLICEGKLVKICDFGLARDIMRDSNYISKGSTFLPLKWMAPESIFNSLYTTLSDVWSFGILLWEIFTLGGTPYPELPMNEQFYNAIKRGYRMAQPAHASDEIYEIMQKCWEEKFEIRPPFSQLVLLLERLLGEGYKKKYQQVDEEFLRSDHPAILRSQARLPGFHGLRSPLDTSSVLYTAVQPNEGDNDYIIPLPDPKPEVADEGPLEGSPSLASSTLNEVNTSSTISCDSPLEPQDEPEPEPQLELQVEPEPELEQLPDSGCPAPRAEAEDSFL

Question: What does the source list for `Cc1cccc(-c2nc(Nc3ccncc3)c3ccccc3n2)n1` [NK215]?
Answer: KINOMEscan PDGFRB [1]: 3; KINOMEscan PIK3CB [2]: 0; KINOMEscan SRPK3 [3]: 15; KINOMEscan TRPM6 [4]: 0; KINOMEscan CLK3 [5]: 31; KINOMEscan CSF1R [6]: 0; KINOMEscan CSF1R-autoinhibited [6]: 0; KINOMEscan MYLK2 [7]: 7; KINOMEscan IRAK3 [8]: 21; KINOMEscan CSNK1G3 [9]: 12; KINOMEscan TYRO3 [10]: 0; KINOMEscan CAMK2A [11]: 6
